Measured values: patent US12486489B2, “Culture medium for testing drug resistance of H.pylori as well as preparation method and use thereof” (priority 2022, dated 2025)

How the values were obtained:
H. pylori [1] = assay: Effects of NiCl2 on H. pylori on culture medium (50 mL Colombian culture medium with 80 mg urea and 0.4 mg phenol red); format: cell-based, Helicobacter pylori; design: key to bacteria growth and discoloration: +: refers to a good bacteria growth after 36 hours of culture, with a discoloration; ++: refers to a good bacteria growth after 36 hours of culture, with an obvious discoloration; details: for bacteria growth and discoloration: 36 hours of culture
H. pylori [2] = assay: Effects of urea and phenol red on H. pylori on Columbia culture medium; format: cell-based, Helicobacter pylori; details: for bacterial growth: 1 × 10^6 CFU/mL; for effect on the growth of H. pylori: strains G27 and 287, 72 hours

Question: `[Cl][Ni][Cl]` [NiCl2, nickel chloride] was tested. Which “recognition of the discoloration reaction” value (H. pylori [1]; NiCl2 100 μmol/L) did it give?
Answer: The value was “has reached its maximum”.

Question: What about the “sensitivity and identification of the discoloration reaction” value (H. pylori [1]; NiCl2 1 μMol/L to 200 μMol/L, 80 mg urea, 0.4 mg phenol red, pH 7.15 to 7.35) of the same molecule?
Answer: Its value is “the sensitivity and identification of the discoloration reaction are further improved”.

Question: What about the “bacteria growth and discoloration” value (H. pylori [1]; strain 159, NiCl2 1 μmol/L) of the same molecule?
Answer: Its value is “+”.

Question: What about the “bacteria growth and discoloration” value (H. pylori [1]; strain 159, NiCl2 10 μmol/L) of the same molecule?
Answer: The value was “+”.

Question: And the “bacteria growth and discoloration” value (H. pylori [1]; strain 159, NiCl2 100 μmol/L)?
Answer: The value was “++”.

Question: What about the “bacteria growth and discoloration” value (H. pylori [1]; strain 161, NiCl2 1 μmol/L) of the same molecule?
Answer: Its value is “+”.

Question: And the “bacteria growth and discoloration” value (H. pylori [1]; strain 161, NiCl2 10 μmol/L)?
Answer: The value was “+”.

Question: And the “bacteria growth and discoloration” value (H. pylori [1]; strain 161, NiCl2 100 μmol/L)?
Answer: Its value is “++”.

Question: What about the “bacteria growth and discoloration” value (H. pylori [1]; strain 162, NiCl2 1 μmol/L) of the same molecule?
Answer: Its value is “+”.

Question: What about the “bacteria growth and discoloration” value (H. pylori [1]; strain 162, NiCl2 10 μmol/L) of the same molecule?
Answer: Its value is “+”.

Question: What about the “bacteria growth and discoloration” value (H. pylori [1]; strain 162, NiCl2 100 μmol/L) of the same molecule?
Answer: The value was “++”.

Question: And the “bacteria growth and discoloration” value (H. pylori [1]; strain 163, NiCl2 1 μmol/L)?
Answer: Its value is “+”.

Question: And the “bacteria growth and discoloration” value (H. pylori [1]; strain 163, NiCl2 10 μmol/L)?
Answer: Its value is “+”.

Question: And the “bacteria growth and discoloration” value (H. pylori [1]; strain 163, NiCl2 100 μmol/L)?
Answer: The value was “++”.

Question: And the “bacteria growth and discoloration” value (H. pylori [1]; strain 286, NiCl2 1 μmol/L)?
Answer: Its value is “+”.

Question: And the “bacteria growth and discoloration” value (H. pylori [1]; strain 286, NiCl2 10 μmol/L)?
Answer: The value was “+”.

Question: What about the “bacteria growth and discoloration” value (H. pylori [1]; strain 286, NiCl2 100 μmol/L) of the same molecule?
Answer: Its value is “++”.

Question: What about the “bacteria growth and discoloration” value (H. pylori [1]; strain 287, NiCl2 1 μmol/L) of the same molecule?
Answer: Its value is “+”.

Question: What about the “bacteria growth and discoloration” value (H. pylori [1]; strain 287, NiCl2 10 μmol/L) of the same molecule?
Answer: Its value is “+”.

Question: What about the “bacteria growth and discoloration” value (H. pylori [1]; strain 287, NiCl2 100 μmol/L) of the same molecule?
Answer: Its value is “++”.

Question: What about the “bacteria growth and discoloration” value (H. pylori [1]; strain 289, NiCl2 1 μmol/L) of the same molecule?
Answer: The value was “+”.

Question: What about the “bacteria growth and discoloration” value (H. pylori [1]; strain 289, NiCl2 10 μmol/L) of the same molecule?
Answer: Its value is “+”.

Question: And the “bacteria growth and discoloration” value (H. pylori [1]; strain 289, NiCl2 100 μmol/L)?
Answer: The value was “++”.

Question: And the “bacteria growth and discoloration” value (H. pylori [1]; strain 290, NiCl2 1 μmol/L)?
Answer: Its value is “+”.

Question: What about the “bacteria growth and discoloration” value (H. pylori [1]; strain 290, NiCl2 10 μmol/L) of the same molecule?
Answer: The value was “+”.

Question: What about the “bacteria growth and discoloration” value (H. pylori [1]; strain 290, NiCl2 100 μmol/L) of the same molecule?
Answer: Its value is “++”.

Question: And the “bacteria growth and discoloration” value (H. pylori [1]; strain 26695, NiCl2 1 μmol/L)?
Answer: The value was “+”.

Question: And the “bacteria growth and discoloration” value (H. pylori [1]; strain 26695, NiCl2 10 μmol/L)?
Answer: Its value is “+”.

Question: And the “bacteria growth and discoloration” value (H. pylori [1]; strain 26695, NiCl2 100 μmol/L)?
Answer: The value was “++”.

Question: And the “bacteria growth and discoloration” value (H. pylori [1]; strain G27, NiCl2 1 μmol/L)?
Answer: Its value is “+”.

Question: What about the “bacteria growth and discoloration” value (H. pylori [1]; strain G27, NiCl2 10 μmol/L) of the same molecule?
Answer: The value was “+”.

Question: What about the “bacteria growth and discoloration” value (H. pylori [1]; strain G27, NiCl2 100 μmol/L) of the same molecule?
Answer: Its value is “++”.

Question: What does the source list for `NC(N)=O` [Urea, urea]?
Answer: maximum value of added urea without affecting the growth of H. pylori (H. pylori [2]; in 50 mL Colombian culture medium): 80 mg; bacterial growth (H. pylori [2]; strain 159, urea 60 mg): ++; bacterial growth (H. pylori [2]; strain 159, urea 80 mg): ++; bacterial growth (H. pylori [2]; strain 159, urea 100 mg): +; bacterial growth (H. pylori [2]; strain 159, urea 120 mg): +; bacterial growth (H. pylori [2]; strain 159, urea 240 mg): −; bacterial growth (H. pylori [2]; strain 161, urea 60 mg): ++; bacterial growth (H. pylori [2]; strain 161, urea 80 mg): ++; bacterial growth (H. pylori [2]; strain 161, urea 100 mg): +; bacterial growth (H. pylori [2]; strain 161, urea 120 mg): +; bacterial growth (H. pylori [2]; strain 161, urea 240 mg): −; bacterial growth (H. pylori [2]; strain 162, urea 60 mg): ++; bacterial growth (H. pylori [2]; strain 162, urea 80 mg): ++; bacterial growth (H. pylori [2]; strain 162, urea 100 mg): +; bacterial growth (H. pylori [2]; strain 162, urea 120 mg): +; bacterial growth (H. pylori [2]; strain 162, urea 240 mg): −; bacterial growth (H. pylori [2]; strain 163, urea 60 mg): ++; bacterial growth (H. pylori [2]; strain 163, urea 80 mg): ++; bacterial growth (H. pylori [2]; strain 163, urea 100 mg): +; bacterial growth (H. pylori [2]; strain 163, urea 120 mg): +; bacterial growth (H. pylori [2]; strain 163, urea 240 mg): −; bacterial growth (H. pylori [2]; strain 286, urea 60 mg): ++; bacterial growth (H. pylori [2]; strain 286, urea 80 mg): ++; bacterial growth (H. pylori [2]; strain 286, urea 100 mg): +; bacterial growth (H. pylori [2]; strain 286, urea 120 mg): +; bacterial growth (H. pylori [2]; strain 286, urea 240 mg): −; bacterial growth (H. pylori [2]; strain 287, urea 60 mg): ++; bacterial growth (H. pylori [2]; strain 287, urea 80 mg): ++; bacterial growth (H. pylori [2]; strain 287, urea 100 mg): +; bacterial growth (H. pylori [2]; strain 287, urea 120 mg): +; bacterial growth (H. pylori [2]; strain 287, urea 240 mg): −; bacterial growth (H. pylori [2]; strain 289, urea 60 mg): ++; bacterial growth (H. pylori [2]; strain 289, urea 80 mg): ++; bacterial growth (H. pylori [2]; strain 289, urea 100 mg): +; bacterial growth (H. pylori [2]; strain 289, urea 120 mg): +; bacterial growth (H. pylori [2]; strain 289, urea 240 mg): −; bacterial growth (H. pylori [2]; strain 290, urea 60 mg): ++; bacterial growth (H. pylori [2]; strain 290, urea 80 mg): ++; bacterial growth (H. pylori [2]; strain 290, urea 100 mg): +; bacterial growth (H. pylori [2]; strain 290, urea 120 mg): +; bacterial growth (H. pylori [2]; strain 290, urea 240 mg): −; bacterial growth (H. pylori [2]; strain 26695, urea 60 mg): ++; bacterial growth (H. pylori [2]; strain 26695, urea 80 mg): ++; bacterial growth (H. pylori [2]; strain 26695, urea 100 mg): +; bacterial growth (H. pylori [2]; strain 26695, urea 120 mg): +; bacterial growth (H. pylori [2]; strain 26695, urea 240 mg): −; bacterial growth (H. pylori [2]; strain G27, urea 60 mg): ++; bacterial growth (H. pylori [2]; strain G27, urea 80 mg): ++; bacterial growth (H. pylori [2]; strain G27, urea 100 mg): +; bacterial growth (H. pylori [2]; strain G27, urea 120 mg): +; bacterial growth (H. pylori [2]; strain G27, urea 240 mg): −; effect on the growth of H. pylori (H. pylori [2]; urea 60 mg in 50 mL Colombian culture medium): no effect on the growth of H. pylori; effect on the growth of H. pylori (H. pylori [2]; urea 120 mg to 240 mg in 50 mL Colombian culture medium): the growth is not good
